One data set addresses T1, Alpha-1A adrenergic receptor (Rattus norvegicus, UniProt P43140).
T1 sequence (P43140 whole entry): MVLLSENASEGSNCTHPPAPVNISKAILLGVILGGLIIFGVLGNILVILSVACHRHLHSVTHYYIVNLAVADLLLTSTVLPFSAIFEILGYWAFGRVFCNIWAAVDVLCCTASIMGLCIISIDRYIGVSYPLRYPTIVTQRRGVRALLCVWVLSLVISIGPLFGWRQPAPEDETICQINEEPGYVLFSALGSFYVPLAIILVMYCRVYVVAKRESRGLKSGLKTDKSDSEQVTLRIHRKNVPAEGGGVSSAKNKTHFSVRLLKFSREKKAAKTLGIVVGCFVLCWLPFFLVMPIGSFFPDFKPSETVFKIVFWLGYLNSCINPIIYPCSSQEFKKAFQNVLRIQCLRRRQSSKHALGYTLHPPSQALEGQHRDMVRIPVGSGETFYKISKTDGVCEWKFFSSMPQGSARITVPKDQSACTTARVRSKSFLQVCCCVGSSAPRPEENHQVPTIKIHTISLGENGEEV
Kind of data set: DRUGMATRIX: Alpha-1A adrenergic receptor radioligand binding (ligand: prazosin). The format is cell membranes, Wistar, Submaxillary gland, Membrane. Conditions: Not Active = under 50% inhibition at 10 µM.
For the molecule `C[C@]12CC[C@@H]3c4ccc(O)cc4CC[C@H]3[C@@H]1CC[C@@H]2O` [ESTRADIOL], the IC50 entry is given as “Not Active”.

`CC[C@@H](CO)NCCN[C@@H](CC)CO` [ETHAMBUTOL]: the IC50 entry was “Not Active”.

On to `CC1(C)O[C@@H]2C[C@H]3[C@@H]4C[C@H](F)C5=CC(=O)C=C[C@]5(C)[C@H]4[C@@H](O)C[C@]3(C)[C@]2(C(=O)CO)O1` [FLUNISOLIDE], for which the IC50 entry is on record as “Not Active”.

Tested on in the next data set: not listed separately
Kind of data set: DRUGMATRIX: Sigma2 radioligand binding (ligand: [3H] Ifenprodil). The format is cell membranes, Rattus norvegicus, Wistar, Brain, Membrane. The note with it: Not Active = under 50% inhibition at 10 µM.
With `C[C@]12CC[C@@H]3c4ccc(O)cc4CC[C@H]3[C@@H]1CC[C@@H]2O` [ESTRADIOL], the IC50 result is listed as “Not Active” and the Ki entry is recorded as “Not Active”.

As to `CC[C@@H](CO)NCCN[C@@H](CC)CO` [ETHAMBUTOL], the IC50 entry is reported as “Not Active” and the Ki entry was “Not Active”.

With `CC1(C)O[C@@H]2C[C@H]3[C@@H]4C[C@H](F)C5=CC(=O)C=C[C@]5(C)[C@H]4[C@@H](O)C[C@]3(C)[C@]2(C(=O)CO)O1` [FLUNISOLIDE], the IC50 entry is “Not Active” and the Ki result was “Not Active”.

Tested on in a further data set: not listed separately
Kind of data set: DRUGMATRIX: Tumor Necrosis Factor (TNF), Non-Selective radioligand binding (ligand: [125I] TNF-alpha). The data set is classed as cell membranes, Membrane. Conditions: u-937; Not Active = under 50% inhibition at 10 µM.
For the molecule `C[C@]12CC[C@@H]3c4ccc(O)cc4CC[C@H]3[C@@H]1CC[C@@H]2O` [ESTRADIOL], the IC50 entry is “Not Active” and the Ki entry is given as “Not Active”.

On to `CC[C@@H](CO)NCCN[C@@H](CC)CO` [ETHAMBUTOL], for which the IC50 result is “Not Active” and the Ki result is “Not Active”.

In the case of `CC1(C)O[C@@H]2C[C@H]3[C@@H]4C[C@H](F)C5=CC(=O)C=C[C@]5(C)[C@H]4[C@@H](O)C[C@]3(C)[C@]2(C(=O)CO)O1` [FLUNISOLIDE], the IC50 entry is on record as “Not Active” and the Ki result is reported as “Not Active”.

The target in another data set is D(1A) dopamine receptor (Homo sapiens, UniProt P21728). Kind of data set: DRUGMATRIX: Dopamine D1 radioligand binding (ligand: [3H] SCH-23390). The format is cell membranes, Membrane. Conditions: cho; Not Active = under 50% inhibition at 10 µM.
D(1A) dopamine receptor, sequence (P21728 whole entry): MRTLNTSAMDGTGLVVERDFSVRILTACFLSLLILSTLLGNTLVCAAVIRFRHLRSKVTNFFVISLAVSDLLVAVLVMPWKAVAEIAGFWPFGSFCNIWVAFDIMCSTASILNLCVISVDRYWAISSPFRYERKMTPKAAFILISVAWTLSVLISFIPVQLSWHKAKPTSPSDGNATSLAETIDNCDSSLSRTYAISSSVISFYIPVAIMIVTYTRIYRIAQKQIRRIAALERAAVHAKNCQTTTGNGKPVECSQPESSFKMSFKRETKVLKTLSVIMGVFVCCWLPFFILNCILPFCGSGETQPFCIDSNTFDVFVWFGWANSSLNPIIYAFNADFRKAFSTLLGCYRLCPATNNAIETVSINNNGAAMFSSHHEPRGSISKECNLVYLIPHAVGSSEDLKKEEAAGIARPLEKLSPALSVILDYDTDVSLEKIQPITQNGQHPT
With `C[C@]12CC[C@@H]3c4ccc(O)cc4CC[C@H]3[C@@H]1CC[C@@H]2O` [ESTRADIOL], the IC50 entry is recorded as “Not Active”.

For `CC[C@@H](CO)NCCN[C@@H](CC)CO` [ETHAMBUTOL], the IC50 entry is listed as “Not Active”.

As to `CC1(C)O[C@@H]2C[C@H]3[C@@H]4C[C@H](F)C5=CC(=O)C=C[C@]5(C)[C@H]4[C@@H](O)C[C@]3(C)[C@]2(C(=O)CO)O1` [FLUNISOLIDE], the IC50 entry was “Not Active”.

The target in the next data set is Delta-type opioid receptor (Homo sapiens, UniProt P41143). The format is cell membranes, HEK293, Membrane. Conditions: hek293. Note: in other assays of this panel Not Active means under 50% inhibition at 10 µM.
Delta-type opioid receptor, sequence (P41143 whole entry): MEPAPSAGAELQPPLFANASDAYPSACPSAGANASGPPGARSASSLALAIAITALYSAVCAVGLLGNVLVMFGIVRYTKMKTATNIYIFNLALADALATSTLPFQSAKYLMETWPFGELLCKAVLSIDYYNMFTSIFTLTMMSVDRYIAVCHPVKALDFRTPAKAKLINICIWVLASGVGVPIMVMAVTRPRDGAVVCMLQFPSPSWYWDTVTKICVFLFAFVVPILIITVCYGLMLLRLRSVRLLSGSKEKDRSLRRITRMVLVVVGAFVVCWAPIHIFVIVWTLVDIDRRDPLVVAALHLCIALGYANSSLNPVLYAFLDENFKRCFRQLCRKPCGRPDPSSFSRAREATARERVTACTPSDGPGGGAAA
Turning to `C[C@]12CC[C@@H]3c4ccc(O)cc4CC[C@H]3[C@@H]1CC[C@@H]2O` [ESTRADIOL], the IC50 entry is given as “Not Active”.

Turning to `CC[C@@H](CO)NCCN[C@@H](CC)CO` [ETHAMBUTOL], the IC50 entry is listed as “Not Active”.

Regarding `CC1(C)O[C@@H]2C[C@H]3[C@@H]4C[C@H](F)C5=CC(=O)C=C[C@]5(C)[C@H]4[C@@H](O)C[C@]3(C)[C@]2(C(=O)CO)O1` [FLUNISOLIDE], the IC50 result was “Not Active”.

In the next data set the target is cGMP-specific 3',5'-cyclic phosphodiesterase (Homo sapiens, UniProt O76074). Kind of data set: DRUGMATRIX: Phosphodiesterase PDE5 enzyme inhibition (substrate: [3H]cGMP + cGMP). The format is tissue-based. The note with it: platelet; Not Active = under 50% inhibition at 10 µM.
Turning to `C[C@]12CC[C@@H]3c4ccc(O)cc4CC[C@H]3[C@@H]1CC[C@@H]2O` [ESTRADIOL], the IC50 entry is given as “Not Active”.

Consider `CC[C@@H](CO)NCCN[C@@H](CC)CO` [ETHAMBUTOL], for which the IC50 entry is reported as “Not Active”.

On to `CC1(C)O[C@@H]2C[C@H]3[C@@H]4C[C@H](F)C5=CC(=O)C=C[C@]5(C)[C@H]4[C@@H](O)C[C@]3(C)[C@]2(C(=O)CO)O1` [FLUNISOLIDE], for which the IC50 result is “Not Active”.

A further data set has as its target T2, 5-hydroxytryptamine receptor 1A (Rattus norvegicus, UniProt P19327). Note: in other assays of this panel Not Active means under 50% inhibition at 10 µM.
T2 sequence (P19327 whole entry): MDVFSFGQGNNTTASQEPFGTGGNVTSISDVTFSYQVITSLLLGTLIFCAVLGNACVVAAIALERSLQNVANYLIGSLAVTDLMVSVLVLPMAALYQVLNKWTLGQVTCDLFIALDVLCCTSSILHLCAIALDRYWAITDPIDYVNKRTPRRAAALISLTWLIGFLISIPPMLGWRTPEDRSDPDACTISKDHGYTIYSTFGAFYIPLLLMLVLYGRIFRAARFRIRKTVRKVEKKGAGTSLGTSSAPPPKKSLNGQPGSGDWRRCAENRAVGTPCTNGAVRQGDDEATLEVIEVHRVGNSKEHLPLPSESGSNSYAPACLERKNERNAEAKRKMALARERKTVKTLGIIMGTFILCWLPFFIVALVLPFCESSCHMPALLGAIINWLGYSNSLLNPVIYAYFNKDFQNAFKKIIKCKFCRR
The data set is classed as cell membranes, Membrane. The note with it: cho-k1.
On to `C[C@]12CC[C@@H]3c4ccc(O)cc4CC[C@H]3[C@@H]1CC[C@@H]2O` [ESTRADIOL], for which the IC50 entry is listed as “Not Active”.

Consider `CC[C@@H](CO)NCCN[C@@H](CC)CO` [ETHAMBUTOL], for which the IC50 entry is recorded as “Not Active”.

As to `CC1(C)O[C@@H]2C[C@H]3[C@@H]4C[C@H](F)C5=CC(=O)C=C[C@]5(C)[C@H]4[C@@H](O)C[C@]3(C)[C@]2(C(=O)CO)O1` [FLUNISOLIDE], the IC50 result is reported as “Not Active”.

In another data set the target is T3, Cytochrome P450 1A2 (Homo sapiens, UniProt P05177). Note: in other assays of this panel Not Active means under 50% inhibition at 10 µM.
T3 sequence (P05177 whole entry): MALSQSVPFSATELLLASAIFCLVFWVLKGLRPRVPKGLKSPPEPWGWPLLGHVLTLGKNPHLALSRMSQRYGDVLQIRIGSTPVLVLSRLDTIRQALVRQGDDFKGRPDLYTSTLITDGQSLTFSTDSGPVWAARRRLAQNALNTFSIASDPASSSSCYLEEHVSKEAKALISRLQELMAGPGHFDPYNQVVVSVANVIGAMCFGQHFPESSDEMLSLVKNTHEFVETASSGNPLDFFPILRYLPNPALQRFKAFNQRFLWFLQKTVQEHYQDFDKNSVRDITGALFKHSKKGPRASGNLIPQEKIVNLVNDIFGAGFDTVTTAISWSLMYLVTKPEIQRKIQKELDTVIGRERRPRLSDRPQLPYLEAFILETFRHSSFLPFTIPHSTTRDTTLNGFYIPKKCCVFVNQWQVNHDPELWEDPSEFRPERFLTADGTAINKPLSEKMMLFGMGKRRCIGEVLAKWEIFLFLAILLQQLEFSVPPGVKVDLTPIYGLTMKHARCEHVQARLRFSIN
The note with it: bti-tn-5b1-4.
In the case of `C[C@]12CC[C@@H]3c4ccc(O)cc4CC[C@H]3[C@@H]1CC[C@@H]2O` [ESTRADIOL], the IC50 result is “Not Active” and the Ki result is recorded as “Not Active”.

`CC[C@@H](CO)NCCN[C@@H](CC)CO` [ETHAMBUTOL]: the IC50 result was “Not Active” and the Ki entry is listed as “Not Active”.

In the case of `CC1(C)O[C@@H]2C[C@H]3[C@@H]4C[C@H](F)C5=CC(=O)C=C[C@]5(C)[C@H]4[C@@H](O)C[C@]3(C)[C@]2(C(=O)CO)O1` [FLUNISOLIDE], the IC50 entry is “Not Active” and the Ki entry is on record as “Not Active”.

Source of the values: ChEMBL document CHEMBL1909046, “DrugMatrix in vitro pharmacology data”.
